Patent US20110178299A1, “OPTICALLY ACTIVE DIFLUOROMETHANESULFONANILIDE DERIVATIVE AND HERBICIDE” (Kumiai Chemical Industry Co., Ltd., priority 2008, published 2011)

Experiments:
Test in all cases: Paddy pot test of herbicidal effect, water surface application of wettable powder
Type in all cases: in vivo
Settings in all cases: applied onto water surface 3 days after sowing, examined after 30 days
[1] = test system: Echinochloa oryzicola Vasing
Experimental: (§1) A paddy field soil was filled in a plastic pot having an area of 1/5000 are. Beginning of irrigation, fertilizer application and puddling were conducted. Then, seeds of Echinochloa oryzicola Vasing, Monochoria vaginalis Presl var. plan-taginea (Roxb.) Solms-Lau. and Scirpus juncoides Roxb. were sowed at a depth of 0.5 cm, and submerging was conducted so as to give a water depth of 4 cm. 3 days after the sowing, the wettable powder prepared as in the formulation 1 was diluted with water and dropwise added onto the water surface so that the active ingredient amount (g/10 are) added became the level shown in Table 2. Then, breeding was made at room temperature and, after 30 days, herbicidal effect was examined according to the yardstick shown in Table 1.

[2] = test system: Monochoria vaginalis Presl var. plan-taginea (Roxb.) Solms-Lau.
Experimental: as §1

Scirpus juncoides Roxb. = test system: Scirpus juncoides Roxb.
Experimental: as §1

**Q.** How did the “Herbicidal effect (degree of growth control) index, Echinochloa oryzicola” value ([1]; dose 0.04 g ai/10 a) turn out when `COCc1cccc(C(O)c2nc(OC)cc(OC)n2)c1NS(=O)(=O)C(F)F` (racemic) [compound 2, (RS)-2′-(4,6-dimethoxypyrimidin-2-yl)hydroxymethyl-6′-methoxymethyl-1,1-difluoromethanesulfonanilide, reference compound] was run?
**A.** 1 (Herbicidal effect of 10% inclusive to 20% exclusive)

**Q.** What about the “Herbicidal effect (degree of growth control) index, Echinochloa oryzicola” value ([1]; dose 0.08 g ai/10 a) of the same compound?
**A.** 3 (Herbicidal effect of 30% inclusive to 40% exclusive)

**Q.** What about the “Herbicidal effect (degree of growth control) index, Echinochloa oryzicola” value ([1]; dose 0.16 g ai/10 a) of the same compound?
**A.** 5 (Herbicidal effect of 50% inclusive to 60% exclusive)

**Q.** And the “Herbicidal effect (degree of growth control) index, Echinochloa oryzicola” value ([1]; dose 0.32 g ai/10 a)?
**A.** 7 (Herbicidal effect of 70% inclusive to 80% exclusive)

**Q.** And the “Herbicidal effect (degree of growth control) index, Monochoria vaginalis” value ([2]; dose 0.04 g ai/10 a)?
**A.** 0 (Herbicidal effect of less than 10%)

**Q.** And the “Herbicidal effect (degree of growth control) index, Monochoria vaginalis” value ([2]; dose 0.08 g ai/10 a)?
**A.** 0 (Herbicidal effect of less than 10%)

**Q.** And the “Herbicidal effect (degree of growth control) index, Monochoria vaginalis” value ([2]; dose 0.16 g ai/10 a)?
**A.** 9 (Herbicidal effect of 90 inclusive to 100% exclusive)

**Q.** And the “Herbicidal effect (degree of growth control) index, Monochoria vaginalis” value ([2]; dose 0.32 g ai/10 a)?
**A.** 10 (Herbicidal effect of 100% control)

**Q.** And the “Herbicidal effect (degree of growth control) index, Scirpus juncoides” value (Scirpus juncoides Roxb.; dose 0.04 g ai/10 a)?
**A.** 2 (Herbicidal effect of 20% inclusive to 30% exclusive)

**Q.** And the “Herbicidal effect (degree of growth control) index, Scirpus juncoides” value (Scirpus juncoides Roxb.; dose 0.08 g ai/10 a)?
**A.** 8 (Herbicidal effect of 80% inclusive to 90% exclusive)

**Q.** And the “Herbicidal effect (degree of growth control) index, Scirpus juncoides” value (Scirpus juncoides Roxb.; dose 0.16 g ai/10 a)?
**A.** 9 (Herbicidal effect of 90 inclusive to 100% exclusive)

**Q.** What about the “Herbicidal effect (degree of growth control) index, Scirpus juncoides” value (Scirpus juncoides Roxb.; dose 0.32 g ai/10 a) of the same compound?
**A.** 10 (Herbicidal effect of 100% control)

**Q.** For `COCc1cccc([C@H](O)c2nc(OC)cc(OC)n2)c1NS(=O)(=O)C(F)F` [compound 3, (S)-2′-(4,6-dimethoxypyrimidin-2-yl)hydroxyl-methyl-6′-methoxymethyl-1,1-difluoromethanesulfonanilide], which “Herbicidal effect (degree of growth control) index, Echinochloa oryzicola” value ([1]; dose 0.32 g ai/10 a) is on record?
**A.** 0 (Herbicidal effect of less than 10%)

**Q.** What about the “Herbicidal effect (degree of growth control) index, Monochoria vaginalis” value ([2]; dose 0.32 g ai/10 a) of the same compound?
**A.** 0 (Herbicidal effect of less than 10%)

**Q.** And the “Herbicidal effect (degree of growth control) index, Scirpus juncoides” value (Scirpus juncoides Roxb.; dose 0.32 g ai/10 a)?
**A.** 0 (Herbicidal effect of less than 10%)

**Q.** For `COCc1cccc([C@@H](O)c2nc(OC)cc(OC)n2)c1NS(=O)(=O)C(F)F` [compound 1, (R)-2′-(4,6-dimethoxypyrimidin-2-yl)hydroxymethyl-6′-methoxymethyl-1,1-difluoromethanesulfonanilide], which “Herbicidal effect (degree of growth control) index, Echinochloa oryzicola” value ([1]; dose 0.04 g ai/10 a) is on record?
**A.** 1 (Herbicidal effect of 10% inclusive to 20% exclusive)

**Q.** What about the “Herbicidal effect (degree of growth control) index, Echinochloa oryzicola” value ([1]; dose 0.08 g ai/10 a) of the same compound?
**A.** 6 (Herbicidal effect of 60% inclusive to 70% exclusive)

**Q.** And the “Herbicidal effect (degree of growth control) index, Echinochloa oryzicola” value ([1]; dose 0.16 g ai/10 a)?
**A.** 9 (Herbicidal effect of 90 inclusive to 100% exclusive)

**Q.** And the “Herbicidal effect (degree of growth control) index, Echinochloa oryzicola” value ([1]; dose 0.32 g ai/10 a)?
**A.** 9 (Herbicidal effect of 90 inclusive to 100% exclusive)

**Q.** And the “Herbicidal effect (degree of growth control) index, Monochoria vaginalis” value ([2]; dose 0.04 g ai/10 a)?
**A.** 0 (Herbicidal effect of less than 10%)

**Q.** And the “Herbicidal effect (degree of growth control) index, Monochoria vaginalis” value ([2]; dose 0.08 g ai/10 a)?
**A.** 9 (Herbicidal effect of 90 inclusive to 100% exclusive)

**Q.** And the “Herbicidal effect (degree of growth control) index, Monochoria vaginalis” value ([2]; dose 0.16 g ai/10 a)?
**A.** 10 (Herbicidal effect of 100% control)

**Q.** And the “Herbicidal effect (degree of growth control) index, Monochoria vaginalis” value ([2]; dose 0.32 g ai/10 a)?
**A.** 10 (Herbicidal effect of 100% control)

**Q.** What about the “Herbicidal effect (degree of growth control) index, Scirpus juncoides” value (Scirpus juncoides Roxb.; dose 0.04 g ai/10 a) of the same compound?
**A.** 7 (Herbicidal effect of 70% inclusive to 80% exclusive)

**Q.** What about the “Herbicidal effect (degree of growth control) index, Scirpus juncoides” value (Scirpus juncoides Roxb.; dose 0.08 g ai/10 a) of the same compound?
**A.** 9 (Herbicidal effect of 90 inclusive to 100% exclusive)

**Q.** And the “Herbicidal effect (degree of growth control) index, Scirpus juncoides” value (Scirpus juncoides Roxb.; dose 0.16 g ai/10 a)?
**A.** 10 (Herbicidal effect of 100% control)

**Q.** And the “Herbicidal effect (degree of growth control) index, Scirpus juncoides” value (Scirpus juncoides Roxb.; dose 0.32 g ai/10 a)?
**A.** 10 (Herbicidal effect of 100% control)
